Assay results published in patent publication US20190022152A1, “MICROBIOME RESPONSE TO AGENTS” (Yeda Research and Development Co., Ltd., priority 2014, published 2019).

Key:
fecal microbiota = system: fecal microbiota
Experimental: (§1) Frozen fecal samples were processed for DNA isolation using the MoBio PowerSoil kit according to the manufacturer's instructions. 1 ng of the purified fecal DNA was used for PCR amplification and sequencing of the bacterial 16S rRNA gene. ˜365 bp Amplicons spanning the variable region 2 (V2) of the 16S rRNA gene were generated by using the following barcoded primers: Fwd 5′-[…]-3′ (SEQ ID NO: 3), Rev 5′-[…]-3′ (SEQ ID NO: 4). […] Reads were then processed using the QIIME (Quantitative Insights Into Microbial Ecology) analysis pipeline as described, version 1.8. Paired-end joined sequences were grouped into operational taxonomic units (OTUs) using the UCLUST algorithm and the greengenes database. Sequences with distance-based similarity of 97% or greater over median sequence length of 353 bp were assigned to the same OTU. Samples were grouped according to the treatment. Analysis was performed at each taxonomical level (Phylum-genus+OTU level) separately. For each taxon, G test was performed between the different groups. P-values were FDR corrected for multiple hypothesis testing.

[1] = system: microbiota of germ-free recipient mice
Text: (§2) C57Bl/6 WT adult male mice were randomly assigned (without blinding) to treatment groups and were given commercial artificial sweeteners (saccharin-, sucralose- or aspartame-based) or pure saccharin (Sigma Aldrich) in drinking water and fed a high-fat (HFD D12492, 60% Kcal from fat, Research Diets) or standard polysaccharide normal chow (NC) diet (Harlan-Teklad). Compared groups were always fed from the same batch of diet. For antibiotic treatment, mice were given a combination of ciprofloxacin (0.2 gl^−1) and metronidazole ([…]) or vancomycin (0.5 gl^−1) in their drinking water. All antibiotics were obtained from Sigma Aldrich. Adult male outbred Swiss-Webster mice (a widely used mouse strain in germ-free experiments) served as recipients for fecal transplants and were housed in sterile isolators (Park Biosciences). For fecal transplantation experiments, 200 mg of stool (from mouse pellets or human swabs) was resuspended in 5 ml of PBS under anaerobic conditions, vortexed for 3 minutes and allowed to settle by gravity for 2 minutes. Recipient mice were gavaged with 200 μl of the supernatant and maintained on standard NC diet and water throughout the experiment.
pooled fecal matter from naïve adult WT C57Bl/6 male mice was resuspended in 5 ml PBS in an anaerobic chamber (Coy Laboratory Products, 75% N2, 20% CO2, 5% H2), vortexed for 3 minutes and allowed to settle by gravity for 2 minutes. […] were added to a tube containing Chopped Meat Carbohydrate Broth, PR II (BD) and […] of a 5 mgml-1 saccharin solution or an equal volume of PBS. Every 3 days, 500 ml of culture were diluted to fresh medium containing saccharin or PBS. After 9 days, cultures were used for inoculation of germ-free mice.
as §1

[2] = cited from earlier work
mice = assay: Oral glucose tolerance test in mice drinking non-caloric artificial sweeteners (NAS); format: in vivo
Text: as §2
The following commercially available NAS were dissolved in mice drinking water to obtain a 10% solution: Sucrazit (5% saccharin, 95% glucose), Sucralite (5% Sucralose), Sweet'n Low Gold (4% Aspartame). 10% glucose (J.T. Baker) and 10% sucrose (Sigma Aldrich) solutions were used for controls. […] For experiments conducted with pure saccharin (Sigma Aldrich) a 0.1 mgml^−1 solution was used in order to meet with FDA defined ADI for saccharin in humans (5 mgkg^−1), according to the following calculation:
Mice were fasted for 6 hours during the light phase, with free access to water. In all groups of mice where the drinking regime was other than water, it was substituted for water for the period of the fasting and glucose or insulin tolerance test. Blood from the tail vein was used to measure glucose levels using a glucometer (Bayer) immediately before and 15, 30, 60, 90 and 120 minutes after oral feeding with 40 mg glucose (J.T. Baker) or intra-peritoneal injection with 0.1 Ukg^−1 Insulin (Biological Industries). Plasma fasting insulin levels were measured in sera collected immediately before the start of GTT using ELISA (Ultra Sensitive Mouse Insulin ELISA Kit, Crystal Chem).

[3] = GF recipients of D7 vs D1 microbiome from human responder
[4] = GF recipients of saccharin-enriched culture, day 6, level 2

SMILES: O=C1NS(=O)(=O)c2ccccc21 [saccharin]
- microbiota composition (dysbiosis) (fecal microbiota; mice consuming pure saccharin and HFD): dysbiosis was observed
- operational taxonomic units (OTUs) significantly altered in abundance (fecal microbiota; saccharin-consuming mice vs all control groups, week 11, FDR corrected p<0.05 (FIG. 21: commercial saccharin)): > 40
- decrease in Candidatus Arthromitus [1, 3]: ~10 fold
- relative increase of Bacteroides fragilis [1, 3]: 20 fold
- relative increase of Weissella ciboria [1, 3]: 20 fold
- Saccharin Enriched D6: p_Bacteroidetes [1, 4]: 0.611
- Saccharin Enriched D6: p_Firmicutes [1, 4]: 0.3649
- Saccharin Enriched D6: p_Tenericutes [1, 4]: 0.02291
- Saccharin Enriched D6: p_Bacteroidetes; c_Bacteroidia ([1]; GF recipients, day 6, level 3): 0.6108
- Saccharin Enriched D6: p_Firmicutes; c_Bacilli ([1]; GF recipients, day 6, level 3): 0.3122
- Saccharin Enriched D6: p_Firmicutes; c_Clostridia ([1]; GF recipients, day 6, level 3): 0.05266
- Saccharin Enriched D6: p_Proteobacteria; c_Gammaproteobacteria ([1]; GF recipients, day 6, level 3): 0.0001278
- Saccharin Enriched D6: p_Tenericutes; c_Mollicutes ([1]; GF recipients, day 6, level 3): 0.02291
- Saccharin Enriched D6: c_Bacilli; o_Lactobacillales ([1]; GF recipients, day 6, level 4): 0.3116
- Saccharin Enriched D6: c_Bacteroidia; o_Bacteroidales ([1]; GF recipients, day 6, level 4): 0.6108
- Saccharin Enriched D6: c_Clostridia; o_Clostridiales ([1]; GF recipients, day 6, level 4): 0.05266
- Saccharin Enriched D6: c_Gammaproteobacteria; o_Enterobacteriales ([1]; GF recipients, day 6, level 4): 0.0001248
- Saccharin Enriched D6: c_Mollicutes; o_Anaeroplasmatales ([1]; GF recipients, day 6, level 4): 0.02291
- Saccharin Enriched D6: o_Anaeroplasmatales; f_Anaeroplasmataceae ([1]; GF recipients, day 6, level 5): 0.02291
- Saccharin Enriched D6: o_Bacteroidales; f_Bacteroidaceae ([1]; GF recipients, day 6, level 5): 0.467
- Saccharin Enriched D6: o_Bacteroidales; f_Porphyromonadaceae ([1]; GF recipients, day 6, level 5): 0.1379
- Saccharin Enriched D6: o_Bacteroidales; f_S24-7 ([1]; GF recipients, day 6, level 5): 7.066E−05
- Saccharin Enriched D6: o_Bacteroidales; f_[Odoribacteraceae] ([1]; GF recipients, day 6, level 5): 0.004319
- Saccharin Enriched D6: o_Clostridiales; f_ ([1]; GF recipients, day 6, level 5): 0.04275
- Saccharin Enriched D6: o_Clostridiales; f_Clostridiaceae ([1]; GF recipients, day 6, level 5): 0.005131
- Saccharin Enriched D6: o_Clostridiales; f_Dehalobacteriaceae ([1]; GF recipients, day 6, level 5): 0.0008389
- Saccharin Enriched D6: o_Clostridiales; f_Ruminococcaceae ([1]; GF recipients, day 6, level 5): 0.003365
- Saccharin Enriched D6: o_Enterobacteriales; f_Enterobacteriaceae ([1]; GF recipients, day 6, level 5): 0.0001248
- Saccharin Enriched D6: o_Lactobacillales; f_Lactobacillaceae ([1]; GF recipients, day 6, level 5): 0.3087
- Saccharin Enriched D6: o_Lactobacillales; f_Streptococcaceae ([1]; GF recipients, day 6, level 5): 0.0009772
- Saccharin Enriched D6: f_Anaeroplasmataceae; g_Anaeroplasma ([1]; GF recipients, day 6, level 6): 0.02291
- Saccharin Enriched D6: f_Bacteroidaceae; g_Bacteroides ([1]; GF recipients, day 6, level 6): 0.467
- Saccharin Enriched D6: f_Clostridiaceae; g_Candidatus Arthromitus ([1]; GF recipients, day 6, level 6): 0.005047
- Saccharin Enriched D6: f_Clostridiaceae; g_Clostridium ([1]; GF recipients, day 6, level 6): 4.209E−05
- Saccharin Enriched D6: f_Dehalobacteriaceae; g_Dehalobacterium ([1]; GF recipients, day 6, level 6): 0.0008389
- Saccharin Enriched D6: f_Enterobacteriaceae; g_ ([1]; GF recipients, day 6, level 6): 0.0001248
- Saccharin Enriched D6: f_Lachnospiraceae; g_[Ruminococcus] ([1]; GF recipients, day 6, level 6): 7.818E−05
- Saccharin Enriched D6: f_Lactobacillaceae; g_Lactobacillus ([1]; GF recipients, day 6, level 6): 0.3087
- Saccharin Enriched D6: f_Porphyromonadaceae; g_Parabacteroides ([1]; GF recipients, day 6, level 6): 0.1379
- Saccharin Enriched D6: f_Ruminococcaceae; g_ ([1]; GF recipients, day 6, level 6): 0.003112
- Saccharin Enriched D6: f_S24-7; g_ ([1]; GF recipients, day 6, level 6): 7.066E−05
- Saccharin Enriched D6: f_Streptococcaceae; g_Lactococcus ([1]; GF recipients, day 6, level 6): 0.0008509
- Saccharin Enriched D6: f_[Odoribacteraceae]; g_Odoribacter ([1]; GF recipients, day 6, level 6): 0.004319
- Saccharin Enriched D6: o_Clostridiales; f_; g_ ([1]; GF recipients, day 6, level 6): 0.04275
- FDA defined ADI (acceptable daily intake) in humans ([2]; humans): 5 mgkg^−1
- reported toxic dose ([2]; literature values): 6.3 gkg^−1
- glucose tolerance (OGTT) (mice; C57Bl/6 mice on HFD, 0.1 mgml^−1 pure saccharin in drinking water vs water, from 5 weeks, p<0.0002): impaired glucose tolerance
- glucose tolerance (OGTT) (mice; HFD-fed outbred Swiss Webster mice, 0.1 mgml^−1 pure saccharin, 5 weeks, p<0.03): significant glucose intolerance
